Assay results published in PMC5653977 (EMBO Molecular Medicine, 2017).
Like-named read-outs stand apart in the source and are kept apart here.

Key:
[1] = set-up: method as in Wu et al, 2012; details: ref Wu et al, 2012; cited from earlier work
ERBB4_1-685 dimers = target: T1, ERBB4_1-685 dimers (Homo sapiens, UniProt Q15303); test: Truncated ERBB4 (amino acids 1-685) dimerization split TEV assay; details: PC12 cells, 10 ng/ml EGFld
T1 sequence (Q15303 26-685) 1: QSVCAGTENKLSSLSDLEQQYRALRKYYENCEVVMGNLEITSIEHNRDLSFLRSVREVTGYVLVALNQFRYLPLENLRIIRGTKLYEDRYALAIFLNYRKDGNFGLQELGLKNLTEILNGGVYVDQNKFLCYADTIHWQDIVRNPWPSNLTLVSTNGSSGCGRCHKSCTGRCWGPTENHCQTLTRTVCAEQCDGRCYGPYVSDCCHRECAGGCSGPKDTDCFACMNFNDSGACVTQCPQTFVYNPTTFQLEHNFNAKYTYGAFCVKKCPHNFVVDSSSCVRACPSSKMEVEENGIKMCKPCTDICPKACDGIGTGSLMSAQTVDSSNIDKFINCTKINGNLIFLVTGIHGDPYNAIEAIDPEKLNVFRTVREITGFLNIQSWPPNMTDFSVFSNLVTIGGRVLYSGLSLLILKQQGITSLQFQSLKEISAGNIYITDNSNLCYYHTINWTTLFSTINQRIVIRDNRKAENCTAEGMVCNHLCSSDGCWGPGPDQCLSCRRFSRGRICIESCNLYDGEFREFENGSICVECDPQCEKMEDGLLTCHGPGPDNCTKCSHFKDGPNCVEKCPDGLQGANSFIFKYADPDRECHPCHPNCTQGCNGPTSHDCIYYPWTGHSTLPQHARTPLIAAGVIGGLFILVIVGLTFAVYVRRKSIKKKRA
T1 sequence (Q15303 26-685) 2: T1 sequence (Q15303 26-685) 1
Protocol: Individually re‐screened candidates were validated using a dose–response assay. PC12 cells were batch‐transfected as described in the section “Transfection of cells”, manually plated, and incubated for 24 h at 37°C and 5% CO2. Candidate small molecules were prepared in a series of dilutions using DMSO as diluent and ranging from 0.0001 to 100 μM at final concentrations, thus covering at least five orders of magnitude. Candidate dilutions were added, followed by the addition of 10,000 Nrg1‐expressing cells in 100 μl volume 30 min later. Cells were lysed in 40 μl Passive Lysis Buffer and analyzed in a Dual Luciferase Assay. Data were analyzed in Excel and GraphPad Prism. For single‐culture assays that used EGFld as stimulus, 100 μl assay medium containing EGFld (f.c. 10 ng/ml) was administered. […] Dose–response assays were run in six replicates per concentration and repeated at least two times. Data are shown as mean, and error bars represent SEM.

EGFR dimers = EGFR dimers (Homo sapiens, UniProt P00533); test: ERBB dimerization split TEV assay EGFR/EGFR; format: cell-based
EGFR dimers, sequence (P00533 25-1210): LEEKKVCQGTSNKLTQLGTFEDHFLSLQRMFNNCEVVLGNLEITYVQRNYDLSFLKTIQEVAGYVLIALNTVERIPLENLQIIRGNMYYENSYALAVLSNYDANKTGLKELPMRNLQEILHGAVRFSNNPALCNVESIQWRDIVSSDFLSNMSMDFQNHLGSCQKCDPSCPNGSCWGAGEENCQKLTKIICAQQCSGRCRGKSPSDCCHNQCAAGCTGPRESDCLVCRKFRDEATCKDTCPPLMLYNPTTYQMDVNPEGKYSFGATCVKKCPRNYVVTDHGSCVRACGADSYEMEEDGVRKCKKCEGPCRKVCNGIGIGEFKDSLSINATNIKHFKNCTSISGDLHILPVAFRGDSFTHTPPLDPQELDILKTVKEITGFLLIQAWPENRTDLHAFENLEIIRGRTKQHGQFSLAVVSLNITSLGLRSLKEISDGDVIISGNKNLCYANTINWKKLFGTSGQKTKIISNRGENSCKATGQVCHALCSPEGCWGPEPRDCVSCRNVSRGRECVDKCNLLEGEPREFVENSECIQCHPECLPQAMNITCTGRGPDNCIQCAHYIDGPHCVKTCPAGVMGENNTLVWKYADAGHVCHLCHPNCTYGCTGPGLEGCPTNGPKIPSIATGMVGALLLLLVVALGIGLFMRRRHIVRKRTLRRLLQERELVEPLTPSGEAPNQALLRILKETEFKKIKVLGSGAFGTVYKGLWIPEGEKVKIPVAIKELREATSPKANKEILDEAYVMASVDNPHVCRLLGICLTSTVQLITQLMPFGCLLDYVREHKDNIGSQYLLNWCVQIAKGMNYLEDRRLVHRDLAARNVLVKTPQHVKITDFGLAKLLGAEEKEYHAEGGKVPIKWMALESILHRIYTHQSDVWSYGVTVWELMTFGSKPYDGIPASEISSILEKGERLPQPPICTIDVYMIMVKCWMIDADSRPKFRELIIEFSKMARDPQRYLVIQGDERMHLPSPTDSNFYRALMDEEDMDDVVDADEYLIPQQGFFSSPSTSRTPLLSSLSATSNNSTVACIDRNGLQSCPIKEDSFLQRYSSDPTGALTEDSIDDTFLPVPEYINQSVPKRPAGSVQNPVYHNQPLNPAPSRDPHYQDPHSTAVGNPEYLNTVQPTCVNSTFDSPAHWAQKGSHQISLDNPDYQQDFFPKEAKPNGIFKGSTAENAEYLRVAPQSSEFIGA
EGFR dimers, sequence (P00533 25-1210): as above
Excerpt: (§1) Gateway recombination cloning (Life Technologies) was applied for generating plasmids. Each ORF cloned was PCR‐amplified using the Pwo proofreading DNA polymerase (Roche) and BP‐recombined into the pDONR/Zeo plasmid (Life Technologies) to yield an entry vector, which was control‐digested using BsrGI to release the insert, and sequence‐verified. The following human ORFs were cloned using cDNA image clones ordered from Source BioScience: ERBB4 transcript variant JM‐a/CYT‐1 (Accession: BC112199), PIK3R1 (BC094795), GRB2 transcript variant 1 (BC000631), SHC1 transcript variant 2 (BC014158), STAT5A (BC027036), and SRC transcription variant 1 (BC051270). For EGFR, ERBB2, and ERBB3, entry vectors were obtained from the human CCSB kinase collection available from Addgene (Johannessen et al, 2010). Entry vectors were LR‐recombined into split TEV destination vectors [either pcDNA_attR1‐ORF‐attR2‐NTEV‐tevS‐GV‐2xHA_DEST or pTag4C_attR1‐ORF‐attR2‐CTEV‐2xHA_DEST, plasmids were described in detail before (Wehr et al, 2006)] to yield expression vectors, which were control‐digested using BsrGI. The plasmids for Nrg1 type I β1a and rat Nrg1 type III β1a have been described before (Wehr et al, 2006).

[2] = target: EGFR-NTEV-tevS-GV + ERBB3-CTEV (Homo sapiens, UniProt P00533+P21860); test: ERBB dimerization split TEV assay EGFR/ERBB3; format: cell-based; details: 10 ng/ml EGFld
EGFR-NTEV-tevS-GV + ERBB3-CTEV, sequence (P00533 25-1210): as above
EGFR-NTEV-tevS-GV + ERBB3-CTEV, sequence (P21860 20-1342): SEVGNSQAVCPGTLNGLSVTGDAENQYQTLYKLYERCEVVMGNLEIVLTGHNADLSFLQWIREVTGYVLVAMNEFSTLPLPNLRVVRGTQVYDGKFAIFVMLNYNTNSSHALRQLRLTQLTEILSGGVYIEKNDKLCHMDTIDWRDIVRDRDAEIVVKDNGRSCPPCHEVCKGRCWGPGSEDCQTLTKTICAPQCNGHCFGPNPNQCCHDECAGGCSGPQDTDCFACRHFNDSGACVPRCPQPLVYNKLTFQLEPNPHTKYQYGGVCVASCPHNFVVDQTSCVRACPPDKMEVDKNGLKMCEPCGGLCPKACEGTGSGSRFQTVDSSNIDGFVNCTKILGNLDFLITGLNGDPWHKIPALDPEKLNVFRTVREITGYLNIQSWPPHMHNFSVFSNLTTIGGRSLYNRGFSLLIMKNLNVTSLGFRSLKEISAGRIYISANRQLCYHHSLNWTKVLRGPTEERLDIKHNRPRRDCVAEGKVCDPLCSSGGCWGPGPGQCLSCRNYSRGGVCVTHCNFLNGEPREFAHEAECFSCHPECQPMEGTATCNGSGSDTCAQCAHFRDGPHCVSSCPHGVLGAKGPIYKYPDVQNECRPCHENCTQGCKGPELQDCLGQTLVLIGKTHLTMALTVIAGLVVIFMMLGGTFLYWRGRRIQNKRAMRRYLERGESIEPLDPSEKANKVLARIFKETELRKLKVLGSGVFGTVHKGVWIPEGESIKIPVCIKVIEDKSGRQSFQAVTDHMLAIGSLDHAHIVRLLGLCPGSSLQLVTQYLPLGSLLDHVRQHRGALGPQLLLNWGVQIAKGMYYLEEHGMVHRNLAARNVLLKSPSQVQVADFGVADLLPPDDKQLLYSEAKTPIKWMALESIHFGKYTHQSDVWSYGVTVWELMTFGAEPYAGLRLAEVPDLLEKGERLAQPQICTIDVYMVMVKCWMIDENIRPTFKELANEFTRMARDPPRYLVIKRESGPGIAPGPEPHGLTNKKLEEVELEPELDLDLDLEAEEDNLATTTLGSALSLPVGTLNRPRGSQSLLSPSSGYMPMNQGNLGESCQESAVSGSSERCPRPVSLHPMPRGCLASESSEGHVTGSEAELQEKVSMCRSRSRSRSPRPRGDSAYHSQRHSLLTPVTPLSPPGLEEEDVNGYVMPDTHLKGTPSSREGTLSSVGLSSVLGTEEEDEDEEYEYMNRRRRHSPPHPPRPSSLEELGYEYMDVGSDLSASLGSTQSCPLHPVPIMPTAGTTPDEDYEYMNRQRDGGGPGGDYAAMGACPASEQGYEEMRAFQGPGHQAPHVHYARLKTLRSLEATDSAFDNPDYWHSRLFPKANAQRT
Excerpt: as §1

Nrg1-tg and wt mice = test: Y-maze test; format: in vivo, mouse; details: 50 mg/kg s.c. daily
Protocol: For behavioral testing, age‐matched male mice (8–16 weeks) on C57Bl/6 background that constitutively overexpress the 2xHA‐tagged Nrg1 type III β1a isoform (Nrg1‐tg) under the control of the mouse Thy1.2 promoter (Velanac et al, 2012) and their wild‐type (wt) littermates as controls were used. Animals were group‐housed in the same ventilated sound‐attenuated rooms under a 12‐h light/12‐h dark schedule (lights on at 8:00 am) at an ambient temperature of 21°C with food and water available ad libitum. One week prior to experiments, mice were separated into single cages and habituated to the experimental rooms. To minimize the influence of the circadian rhythm on drug actions, the treatment groups were analyzed at balanced time points during the light phase. […] All animal experiments were conducted in accordance with NIH principles of laboratory animal care and were approved by the Government of Lower Saxony, Germany, in accordance with the German Animal Protection Law.
Treatment was continued throughout the behavioral analysis period. To avoid injection‐induced stress prior to behavioral testing, mice were injected in the afternoon, after the entire cohort has completed the behavioral paradigm.

[3] = set-up: method as in Zhou et al, 2011; details: ref Zhou et al, 2011; cited from earlier work
[4] = system: pyramidal neurons of the prefrontal cortex; test: Evoked inhibitory postsynaptic currents (eIPSCs) in acute prefrontal cortex slices; format: cell-based, mouse; details: 5 μM in the presence of canrenone (10 μM)
Protocol: 300‐μm‐thick transverse slices comprising the medial prefrontal cortex (mPFC) area were prepared from 7‐ to 8‐week‐old C57Bl/6 mice as described previously (Teng et al, 2013; Agarwal et al, 2014). All recordings were performed in cortical layer V projection neurons. The bath solution consisted of oxygenated artificial cerebrospinal fluid (ACSF) containing NaCl 126 mM, KCl 3 mM, NaH2PO4 1.25 mM, MgSO4 1 mM, NaHCO3 26 mM, CaCl2 2 mM, glucose 10 mM, and the pH 7.2 adjusted with NaOH. Spontaneous GABAergic inhibitory postsynaptic currents (sIPSC) and evoked GABAergic inhibitory postsynaptic currents (eIPSC) were recorded at a holding potential of −70 mV in the presence of 6‐cyano‐7‐nitroquinoxaline‐2,3‐dione (CNQX, 10 μM) and DL‐2‐amino‐5‐phosphonovaleric acid (D‐APV, 50 μM). Glass pipettes were filled with the solution containing: KCl 140 mM, MgCl2 2 mM, CaCl2 1 mM, Na2GTP 0.5 mM, Na2ATP 4 mM, EGTA 10 mM, HEPES 10 mM. Patches with a series resistance of > 25 MΩ, a membrane resistance of < 0.8 GΩ, or leak currents of > 150 pA were excluded. Biphasic rectangular electric pulses (10 ms, 100–300 μA) were applied to layer I of the prelimbic area of mPFC through another glass pipette filled with ACSF. Synaptic currents were acquired at 20 kHz and filtered at 6 kHz, with a Digidata 1440 ADC‐converter coupled to a Multiclamp 700B amplifier (Molecular Devices, USA). […]

CC(=O)S[C@@H]1CC2=CC(=O)CC[C@]2(C)[C@H]2CC[C@@]3(C)[C@@H](CC[C@@]34CCC(=O)O4)[C@H]12 [Spironolactone]
motivation and curiosity in mice [1]: increase motivation and curiosity
inhibitory effect on dimerization of truncated ERBB4 (ERBB4_1-685 dimers): no inhibitory effect
IC50 (EGFR dimers; 100 ng/ml EGF as stimulus, read-out: IC50, EGFR dimers, stimulus EGF): 1.74 µM
IC50 (EGFR dimers; PC12 cells, 10 ng/ml EGFld, read-out: IC50, EGFR-NTEV-tevS-GV + EGFR-CTEV): 8.5 µM
IC50 [2]: 2.81 µM
arm choices in the Y-maze (activity) (Nrg1-tg and wt mice): There was no effect of treatment
working memory (alterations in the Y-maze) (Nrg1-tg and wt mice; Nrg1-tg mice): rescued these deficits
recent fear memory formation in mice [3]: impaired recent fear memory formation
eIPSC amplitude [4]: significantly increased
